From publication PMC12362585, “Development and Preclinical Characterization of [^18F]H3-2406 and [^18F]H3-2407 for Positron Emission Tomography Imaging of the Histamine Subtype‑3 Receptor” (Journal of Medicinal Chemistry, 2025) come the findings set out here.

This data set in a line: Log D by shake-flask method. It is filed as physicochemical. To be noted: n-octanol/PBS. How it is done: To evaluate the binding affinities of compounds 1–9, competitive radioligand binding assays were conducted using [^3H]-AZ13582963 [4-(1S,2S)-2-(4-cyclobutylpiperazine-1-carbonyl)-cyclopropyl)-N-methyl-[2-^3 H]-benzamide]. […]. […]. Further, ACD Percepta predictions indicated these compounds are likely to cross the blood-brain barrier (BBB), as indicated by a log BB > −1 and a multiparameter optimization (MPO) score >4.0. High selectivity toward H3R over other CNS targets is essential for effective H3R PET imaging. Therefore, off-target screenings of compounds 2, 3, and 4 were conducted against various CNS receptors, G protein-coupled receptors (GPCRs), transporters, and ion channels at 10 μM (Figure S1). […]. Sigma-1 receptors, crucial for ion channel function and associated with learning, memory, and pain, , have shown synergy with H3R antagonists, including PF-03654746 and ABT-239, potentially enhancing in vivo efficacy.
The lipophilicity was measured according to previously reported methods. , In brief, PBS and n-octanol were premixed prior to the experiment. A solution containing 0.2 MBq of [^18F]3 or [^18F]4, PBS (3 mL) and n-octanol (3 mL) were prepared in a vial and vortexed for 5 min. The PBS and n-octanol layers were then separated and transferred into a centrifuge tube, followed centrifugation at 12,000 rpm for 5 min. Then PBS (0.5 mL) and n-octanol (0.05 mL) were weight and measured the radioactivity on a γ counter (PerkinElmer Wizard). The Log D values of [ ^18F]3 and [^18F]4 were calculated using the following formula: LogD=Log[(radioactivityn‐octanol/weightn‐octanol)/(radioactivityPBS/weightPBS)]

For `O=C([C@H]1C[C@@H]1c1ccc([18F])cc1)N1CCN(C2CCCC2)CC1` [[^18F]3], the logD amounted to 2.82.

As usually defined, the logD is the decadic logarithm of the distribution of all forms, ionised or not, between an organic phase and buffer at a given pH.
